Holding throughout (test): inhibition of tumour cell growth, NCI panel, 48 h
The test system of experiment [1] is 786-0 renal.
The subject of experiment [2] is PC-3 prostate.
The subject of experiment [3] is NCI-H460 lung.
Experiment [4] deals with OVCAR-8 ovarian.
Experiment [5] has as its system COLO 205 colon.
Experiment [6] has as its system OVCAR-4 ovarian.
In experiment [7] the test system is U251 CNS.
For experiment [8], the system named is HL-60(TB) leukemia.
Experiment [9] relates to SK-OV-3 ovarian.
Experiment [10] relates to IGROV1 ovarian.
Experiment [11] relates to A498 renal.

The structures appear in SMILES notation. Values joined by “and” are separate entries in the source; they are usually repeats but may differ in a detail not shown here. Identical values can stand only once.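 Compound exposure: 48 hours, 5 concentrations, 96-well plates. GI50 = concentration required for 50% inhibition of growth. The concentration for full growth arrest is given as TGI.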

As for `COc1ccc(-c2c(C#N)c(S)n(NS(=O)(=O)c3ccccc3)c(=O)c2C#N)cc1`, the TGI in experiment [1], in experiment [2], in [3], in experiment [4], in experiment [5] and in [6] was over 100 µM throughout. For the same compound, the TGI in experiment [7], in experiment [8], in [9] and in experiment [10] was over 100 µM each time.
For the compound `CCN1CN(c2ccccc2)C2(CCN(CC(CC3OCCO3)c3ccc(F)cc3)CC2)C1=O` (stereo not given), the TGI in [1] is 39 µM; in experiment [2] it was over 100 µM; in experiment [11] it was 9.51 µM; in experiment [3], 33 µM; in experiment [4] it was over 100 µM; in experiment [5], 1.95 µM. For the same compound, the TGI in [6] was 36.3 µM; in experiment [7], 38.9 µM; in [8] it was 49.3 µM; in [9], over 73.3 µM; in experiment [10], over 53.8 µM.
In the case of `OC1CSc2nc3ccccc3n2C1` (stereo not given), the TGI in experiment [1], in [2], in experiment [11], in experiment [3], in experiment [4] and in [5] was over 100 µM in each case. Also, the TGI in experiment [7], in [8], in [9] and in [10] was over 100 µM throughout.
Consider `N#Cc1c(O)c(/C=N/c2ncccn2)c(=O)n2c1[nH]c1ccccc12`, for which the TGI in experiment [1], in experiment [2], in [11], in [3], in [4] and in [5] was over 100 µM each time. For the same compound, the TGI in [6], in experiment [7], in experiment [8], in [9] and in [10] was over 100 µM throughout.
With `CC(=O)Oc1ccc2c3c1O[C@H]1[C@H](O)CC[C@@]4(O)[C@@H](C2)N(C)CC[C@]314`, the TGI in [1], in [2], in [11], in [4], in experiment [5] and in experiment [6] was over 100 µM each time. Also, the TGI in experiment [7], in experiment [8], in [9] and in experiment [10] was over 100 µM in each case.
In the case of `Cc1ccc(N(C)S(=O)(=O)c2ccccc2[N+](=O)[O-])cc1`, the TGI in [1], in experiment [2], in experiment [3], in [4], in experiment [5] and in [6] was over 100 µM each time. Moreover, the TGI in [7] and in [8] was over 100 µM in each case.
On to `CCO/C=N/C1=C(C#N)SC2=N/C(=C\c3ccccc3)C(=O)N21`, for which the TGI in experiment [1], in [2], in experiment [11], in experiment [3], in experiment [4] and in experiment [5] was over 100 µM throughout. The TGI in [6] is over 100 µM; in experiment [7], over 100 µM; in [8], over 83.2 µM; in experiment [9], over 100 µM; in experiment [10], over 100 µM.
As for `COC(=O)C12OC3CO[Si](C(C)C)(C(C)C)O[Si](C(C)C)(C(C)C)OC3C1Oc1nc(=O)ccn12` (stereo not given), the TGI in [1] was 31.6 µM; in experiment [2], 29.2 µM; in experiment [11] it was 38.8 µM; in experiment [4], 29 µM; in experiment [5], 32.9 µM; in experiment [6], 30.8 µM. Also, the TGI was found to be 29.6 µM in experiment [7], 72.9 µM in experiment [8], 31.1 µM in experiment [9] and 24 µM in [10].
`CCOP(=O)(OCC)OC1c2[nH]cc(C(=O)OCc3ccccc3)c2-c2cc(C(=O)OC)[nH]c2C1OC` (stereo not given): the TGI was 27.4 µM in [1]; over 100 µM in experiment [2]; over 100 µM in experiment [11]; over 100 µM in experiment [3]; over 62.8 µM in [4]; over 100 µM in experiment [5]. In addition, the TGI is over 100 µM in [6]; over 96.6 µM in [7]; over 100 µM in [8]; 58 µM in [9]; 31.6 µM in experiment [10].
For `CN(C)Cc1cc(N=Nc2ccc(Cl)cc2)cc(CN(C)C)c1O`, the TGI in experiment [1] was 17.9 µM; in experiment [2] it was 18.8 µM; in experiment [11], 29.8 µM; in experiment [3], 18.1 µM; in experiment [4] it was 12.7 µM; in experiment [5], 13.4 µM. Besides, the TGI was determined as 19.8 µM in experiment [7], 4.94 µM in [8], 33.3 µM in experiment [9] and 12 µM in experiment [10].
In the case of `COc1ccc2nc3cccc([N+](=O)[O-])c3c(NCCCO)c2c1`, the TGI in [1] is 0.0517 µM; in [2], 0.0104 µM and 0.103 µM; in experiment [11] it was 0.0435 µM and 0.0788 µM; in [3], 0.00233 µM and 0.0153 µM; in [4] it was 0.0132 µM; in experiment [6], 0.0312 µM and 0.0859 µM. The TGI in experiment [7] is 0.108 µM and 0.16 µM; in experiment [9], 0.184 µM and 0.563 µM; in experiment [10], 0.0313 µM and 0.29 µM. Further, the GI50 in experiment [11] was 17 nM and 27.5 nM; in [6] it was 10.4 nM and 23 nM; in [8], 2.33 nM; in experiment [9], 37.5 nM and 45.2 nM.
On to `CC1=C(C(=O)N[C@@H](CC(C)C)C(=O)O)N2C(=O)[C@@H](NC(=O)C(N)c3ccccc3)[C@H]2SC1` (stereo not given in full), for which the TGI in [1], in experiment [2], in experiment [11], in experiment [3], in experiment [4] and in experiment [5] was over 100 µM in each case. Also, the TGI in [6], in experiment [7], in experiment [8] and in experiment [10] was over 100 µM each time.
Turning to `Cc1ccc(C(=O)N/N=C(\N=Nc2ccc(C(=O)O)cc2)c2ccc(N(CCC#N)CCC#N)cc2C)cc1`, the TGI in experiment [1], in [2], in [11], in experiment [3], in experiment [4] and in [5] was over 100 µM in each case. The TGI in [6], in experiment [7], in experiment [8] and in [9] was over 100 µM in each case.
